Data as given in US9815847B2 (Icahn School of Medicine at Mount Sinai, priority 2013, dated 2017).

Columns and labels:
K562 = assay: Cytotoxicity on K562 cancer cell line; type: cell-based; conditions: Homo sapiens; K562 chronic myelogenous leukemia; 96 h; 0.01-100 μM
Protocol: (§1) The effect of the compounds described herein on tumor cells was determined by the assay described by Latham et al., Oncogene 12:827-837 (1996). Tumor cells K562 (chronic myelogenous leukemia; leukemia cell line +ve for Bcr-Abl) or DU145 (prostate cancer) were plated in 12-well dishes at a cell density of 2.5×10^4 cells per well. The plated cells were treated 24 h. later with a DMSO solution of a compound as described herein at multiple concentrations ranging from 0.01 μM to 100 μM. The plates were examined 96 h. later under an inverted microscope, Olympus CK-2 using a 10× objective, and compound activity was noted by physical observation. When necessary, the total number of viable cells was determined by trypsinizing the wells and counting the number of viable cells, as determined by trypan blue exclusion, using a hemacytometer.

DU145 = assay: Cytotoxicity on DU145 cancer cell line; type: cell-based; conditions: Homo sapiens, DU-145; DU145 prostate cancer; 96 h; 0.01-100 μM
Protocol: as §1

| SMILES | IC50 (K562) | IC50 (DU145) |
| --- | --- | --- |
| CNc1nc(Nc2ccc(N3CCN(C)CC3)cc2)ncc1/C=C/C#N [Compound 8b, 3-{4-Methylamino-2-[4-(4-methylpiperazin-1-yl)-phenylamino]pyrimidin-5-yl}acrylonitrile] | < 1 µM | 1 to 25 µM |
| N#C/C=C/c1cnc(NCc2ccccc2)nc1NC1CCCC1 [Compound 8p, 3-[2-(Benzylamino)-4-(cyclopentylamino)pyrimidin-5-yl]acrylonitrile] | 25 to 50 µM | 25 to 50 µM |
| Cn1ccc(Nc2nc(Nc3ccc4ncccc4c3)ncc2/C=C/S(=O)(=O)c2ccc(F)cc2F)n1 [Compound 15u, (E)-5-{2-[(2,4-Difluorophenyl)sulfonyl]vinyl}-N^4-(1-methyl-1H-pyrazol-3-yl)-N^2-(quinolin-6-yl)pyrimidine-2,4-diamine] | 1 to 25 µM | 1 to 25 µM |
| Cn1ccc(Nc2nc(Nc3ccc(N4CCOCC4)cc3)ncc2/C=C/S(=O)(=O)c2ccc(F)cc2F)n1 [Compound 15t, (E)-5-{2-[(2,4-Difluorophenyl)sulfonyl]vinyl}-N-(1-methyl-1H-pyrazol-3-yl)-N^2-(4-morpholinophenyl)pyrimidine-2,4-diamine] | 1 to 25 µM | 1 to 25 µM |
| CNc1nc(Nc2ccc3[nH]ccc3c2)ncc1/C=C/S(=O)(=O)c1ccc(F)cc1F [Compound 15a, 5-{2-[2,4-(Difluorophenyl)sulfonyl]vinyl}-N^2-(1H-indol-5-yl)-N^4-methylpyrimidine-2,4-diamine] | 1 to 25 µM | 1 to 25 µM |
| CNc1nc(Nc2ccc(N3CCN(C)CC3)cn2)ncc1/C=C/S(=O)(=O)c1ccc(F)cc1F [Compound 15l, (E)-5-{2-[(2,4-Difluorophenyl)sulfonyl]vinyl}-N^4-methyl-N^2-[5-(4-methylpiperazin-1-yl)pyridin-2-yl]pyrimidine-2,4-diamine] | 1 to 25 µM | 1 to 25 µM |
| CN1CCN(c2ccc(N(C(=O)CCCC[C@@H]3SC[C@@H]4NC(=O)N[C@@H]43)c3ncc(/C=C/C#N)c(NC4CCCC4)n3)cc2)CC1 [Compound 8y, N-[5-(2-Cyanovinyl)-4-(cyclopentylamino)pyrimidin-2-yl]-N-[4-(4-methylpiperazin-1-yl)phenyl]-5-((3aS,4S,6aR)-2-oxohexahydro-1H-thieno[3,4-d]imidazol-4-yl)pentanamide] | 1 to 25 µM | 1 to 25 µM |
| O=S(=O)(/C=C/c1cnc(N2CCOCC2)nc1NC1CCCC1)c1ccc(F)cc1N1CCOCC1 [Compound 15p, (E)-N-Cyclopentyl-5-{2-[(4-fluoro-2-morpholinophenyl)sulfonyl]vinyl}-2-morpholinopyrimidin-4-amine] | 50 to 100 µM | 1 to 25 µM |
| COc1ccc(S(=O)(=O)/C=C/c2cnc(Nc3ccc4[nH]ccc4c3)nc2NC2CCCC2)cc1 [Compound 15k, (E)-N^4-Cyclopentyl-N^2-(1H-indol-5-yl)-5-{2-[(4-methoxyphenyl)sulfonyl]vinyl}pyrimidine-2,4-diamine] | 1 to 25 µM | 1 to 25 µM |
| CCOC(=O)/C=C/c1cnc(Nc2ccc(N3CCN(C)CC3)cc2)nc1NC1CCCC1 [Compound 21, (E)-3-[4-(Cyclopentylamino)-2-{[4-(4-methylpiperazin-1-yl)phenyl]amino}pyrimidin-5-yl]acrylic acid ethyl ester] | < 1 µM | 1 to 25 µM |
| CCN(C)c1nc(Nc2ccc(N3CCN(C)CC3)cc2)ncc1/C=C/C#N [Compound 8v, 3-{4-(N-Ethyl-N-methylamino)-2-[4-(4-methylpiperazin-1-yl)phenylamino]pyrimidin-5-yl}acrylonitrile] | 25 to 50 µM | 25 to 50 µM |
| CNc1nc(Nc2ccc3[nH]ncc3c2)ncc1/C=C/S(=O)(=O)c1ccc(F)cc1F [Compound 15i, (E)-5-{2-[(2,4-Difluorophenyl)sulfonyl]vinyl}-N^2-(1H-indazol-5-yl)-N-methylpyrimidine-2,4-diamine] | 1 to 25 µM | 1 to 25 µM |
| CNc1nc(Nc2ccc(N3CCOCC3)cc2)ncc1/C=C/S(=O)(=O)c1ccc(F)cc1F [Compound 15e, (E)-5-{2-[(2,4-Difluorophenyl)sulfonyl]vinyl}-N^4-methyl-N^2-(4-morpholinophenyl)pyrimidine-2,4-diamine] | 50 to 100 µM | 50 to 100 µM |
| COc1ccc(Nc2ncc(/C=C/C#N)c(NCC3CC3)n2)cc1 [Compound 8s] | 1 to 25 µM | 1 to 25 µM |
| N#C/C=C/c1cnc(N2CCOCC2)nc1NC1CCCC1 [Compound 8z, (E)-3-[4-(Cyclopentylamino)-2-morpholinopyrimidin-5-yl]acrylonitrile] | 1 to 25 µM | 1 to 25 µM |
| CN1CCN(c2ccc(Nc3ncc(/C=C/S(=O)(=O)c4ccc(F)cc4F)c(Nc4ccn(C)n4)n3)cc2)CC1 [Compound 15r, (E)-5-{2-[(2,4-Difluorophenyl)sulfonyl]vinyl}-N^4-(1-methyl-1H-pyrazol-3-yl)-N^2-[4-(4-methylpiperazin-1-yl)phenyl]pyrimidine-2,4-diamine] | 1 to 25 µM | 1 to 25 µM |

| SMILES | IC50 (K562) | IC50 (DU145) |
| --- | --- | --- |
| CNc1nc(Nc2ccc(OC)cc2)ncc1/C=C/S(=O)(=O)c1ccc(F)cc1F [Compound 15f, (E)-5-{2-[(2,4-Difluorophenyl)sulfonyl]vinyl}-N^2-(4-methoxyphenyl)-N^4-methylpyrimidine-2,4-diamine] | 25 to 50 µM | 25 to 50 µM |
| N#C/C=C/c1cnc(Nc2ccc(N3CCOCC3)cc2)nc1NC1CCCC1 [Compound 8j, 3-{4-Cyclopentylamino-2-[(4-morpholin-4-yl)phenylamino]pyrimidin-5-yl}acrylonitrile] | 1 to 25 µM | 1 to 25 µM |
| CCN(c1nc(Nc2ccc(N3CCN(C)CC3)cc2)ncc1/C=C/C#N)C1CCCC1 [Compound 8x, 3-{4-(N-Cyclopentyl-N-ethylamino)-2-[4-(4-methylpiperazin-1-yl)phenylamino]pyrimidin-5-yl}acrylonitrile] | < 1 µM | < 1 µM |
| Cn1ccc(Nc2nc(Nc3ccc4[nH]ccc4c3)ncc2/C=C/S(=O)(=O)c2ccc(F)cc2F)n1 [Compound 15s, (E)-5-{2-[(2,4-Difluorophenyl)sulfonyl]vinyl}-N^2-(1H-indol-5-yl)-N^4-(1-methyl-1H-pyrazol-3-yl)pyrimidine-2,4-diamine] | 1 to 25 µM | 1 to 25 µM |
| CCN1CCN(c2ccc(Nc3ncc(/C=C/C#N)c(NC4CCCC4)n3)cc2)CC1 [Compound 8o, 3-{4-Cyclopentylamino-2-[4-(1-ethylpiperazin-4-yl)-phenylamino]-pyrimidin-5-yl}acrylonitrile] | < 1 µM | < 1 µM |
| CN1CCN(c2ccc(Nc3ncc(/C=C/C#N)c(Nc4ccn(C)n4)n3)cc2)CC1 [Compound 8aa, (E)-3-(4-[(1-Methyl-1H-pyrazol-3-yl)amino]-2-{[4-(4-methylpiperazin-1-yl)phenyl]amino}pyrimidin-5-yl)acrylonitrile] | 1 to 25 µM | 1 to 25 µM |
| COc1ccc(Nc2ncc(/C=C/C#N)c(NC3CCCC3)n2)cc1 [Compound 8n, 3-{4-(Cyclopentylamino)-2-[(4-methoxyphenyl)amino]pyrimidin-5-yl)acrylonitrile] | 1 to 25 µM | 1 to 25 µM |
| N#C/C=C/c1cnc(Nc2ccc3[nH]ccc3c2)nc1NCC1CC1 [Compound 8u, 3-{4-[(Cyclopropylmethyl)amino]-2-[(1H-indol-5-yl)amino]pyrimidin-5-yl)acrylonitrile] | < 1 µM | < 1 µM |
| COc1ccc(S(=O)(=O)/C=C/c2cnc(Nc3ccc(N4CCN(C)CC4)cc3)nc2Nc2ccn(C)n2)cc1 [Compound 15q, (E)-5-{2-[(4-Methoxyphenyl)sulfonyl]vinyl}-N^4-(1-methyl-1H-pyrazol-3-yl)-N^2-[4-(4-methylpiperazin-1-yl)phenyl]pyrimidine-2,4-diamine] | < 1 µM | 1 to 25 µM |
| CC(C)Nc1nc(Nc2ccc(N3CCN(C)CC3)cc2)ncc1/C=C/C#N [Compound 8e, 3-{4-Isopropylamino-2-[4-(4-methylpiperazin-1-yl)phenylamino]pyrimidin-5-yl}acrylonitrile] | < 1 µM | < 1 µM |
| CCCNc1nc(Nc2ccc(N3CCN(C)CC3)cc2)ncc1/C=C/C#N [Compound 8d, 3-{4-Propylamino-2-[4-(4-methylpiperazin-1-yl)phenylamino]pyrimidin-5-yl}acrylonitrile] | < 1 µM | < 1 µM |
| CNc1nc(Nc2ccc(N3CCN(C)CC3)cc2)ncc1/C=C/S(=O)(=O)c1ccc(F)cc1F [Compound 15d, (E)-5-{2-[(2,4-Difluorophenyl)sulfonyl]vinyl}-N^4-methyl-N^2-[4-(4-methylpiperazin-1-yl)phenyl]pyrimidine-2,4-diamine] | 1 to 25 µM | 1 to 25 µM |
| CN1CCN(c2ccc(Nc3ncc(/C=C/S(=O)(=O)c4ccc(F)cc4F)c(NC4CCCC4)n3)cc2)CC1 [Compound 15b, N^4-Cyclopentyl-5-{2-[(2,4-difluorophenyl)sulfonyl]vinyl}-N^2-[4-(4-methylpiperazin-1-yl)phenyl]pyrimidine-2,4-diamine] | 1 to 25 µM | 1 to 25 µM |
| CNc1nc(Nc2ccc3[nH]cnc3c2)ncc1/C=C/S(=O)(=O)c1ccc(F)cc1F [Compound 15n, (E)-N^2-(1H-Benzo[d]imidazol-5-yl)-5-{2-[(2,4-difluorophenyl)sulfonyl]vinyl}-N^4-methylpyrimidine-2,4-diamine] | 1 to 25 µM | 1 to 25 µM |
| COc1ccc(S(=O)(=O)/C=C/c2cnc(Nc3ccc(N4CCN(C)CC4)cc3)nc2NC2CCCC2)cc1 [Compound 15j, (E)-N^4-Cyclopentyl-5-{2-[(4-methoxyphenyl)sulfonyl]vinyl}-N^2-[4-(4-methylpiperazin-1-yl)phenyl]pyrimidine-2,4-diamine] | 1 to 25 µM | 1 to 25 µM |
